Assay results from patent US20250236614A1, “BICYCLIC TETRAHYDROAZEPINE DERIVATIVES” (Hoffmann-La Roche Inc., priority 2022, published 2025).

Tests used:
[1] = molecular target: T1, hDGKalpha(1-735)-N-His (DGKA) (Homo sapiens, UniProt P23743); test: In vitro DGK inhibition assay (ADP-Glo, in house), DGK alpha; format: biochemical; details: isomer A; 4 nM DGK α, 25 μM ATP, 125 μM DLG in liposomes, 1 hour reaction; read-out: DGKalpha ADP Glo assay IC50
T1 construct: hDGKalpha(1-735)-N-His; His (N)
Experimental: DGK α and ζ kinase use ATP to phosphorylate the substrate 1,2-dilauroyl-sn-glycerol (DLG, incorporated in the liposomes). ATP is converted to ADP as a result of this enzymatic reaction.
After the kinase reaction, an ATP-depletion reagent is added to terminate the kinase reaction and deplete any remaining ATP, leaving only ADP. Second, a detection reagent is added to simultaneously convert ADP to ATP and allow the newly synthesized ATP to be converted to light using a coupled luciferase/luciferin reaction.
Full length DGKA and Z were expressed in Sf21 insect cells by infecting the cells with the baculovirus stock at MOI of 2. Purification of both enzymes was performed as previously described by Takahashi et al., PeerJ, 2018 (Takahashi, D.; Sakane, F. Expression and purification of human diacylglycerolkinase alpha from baculovirus-infected insect cells for structural studies. PeerJ2018, 6, No. e5449).
A concentrated liposome solution was prepared in assay buffer without DTT and BSA: 2 mM of DLG in 21 mM of total liposome (2 mM DLG/8 mM PS/11 mM PC). The reaction mixtures contain the assay buffer with a final DLG concentration of 125 μM ATP concentrations of 25 μM (for DGKA assay) or 50 μM (for DGKZ assay). The reactions were started by addition of DGK α and ζ kinases at 4 nM and 2 nM final concentrations, respectively. After 1 hour reaction, the amount of ADP formed was detected with the ADP-Glo kinase assay (Promega) according to the manufacturer instructions. Compounds were added in 11I-points dose response, starting at 10 mM, 1:3 dilutions, with a final DMSO concentration of […]. The multidrop combi was used as a liquid handler and luminescence was read with 0.5 s by the envision reader (PE).

primary human T-cells = test: T-cell proliferation assay (CellTiter-Glo); format: cell-based; details: Homo sapiens, T-cell, 120 h, isomer A; for EC50: CD3 antibody-stimulated T-cells, CellTiter-Glo after 5 days, read-out: Tcell Proliferation CD3 EC50; for Emax: CD3 condition, 5 days, 20 μM reference compound A1 = 100%, DMSO neutral control, read-out: Emax proliferation (% activation)
Experimental: Expanded primary human T-cells are thawed and cultured in RPMI 1640 (Gibco, #61870-010)+5% human serum (HS, Sigma, #H3667)+1 mM Sodium Pyruvate (Gibco, #11360-039)+50 μM 2-mercaptoethanol (Gibco, #31350-010) and 1× Pen-Strep (Life Technologies, #15140122) medium at density of 2 Mio/ml for 3 hours in 5% CO2, 37° C. and 95% humidity. For coating of plates, PBS++ only or PBS++ with CD3 antibody (concentration depending on donor and determined by CD3 titrations) is added 100 μl/well to Poly-D Lysine coated 96-well plates. Plates are sealed and incubated at room temperature for 3 hours on a table-top rocking platform. After incubation, plates are washed once with PBS−− and filled with 40 μl/well culture medium only. Compounds are then added (see next section) to medium only plates. After 3 hours of culturing the T-cells, cells are filtered through a cell strainer (Miltenyi Biotech, #130-041-407), counted again and concentration is adjusted to 1.25 Mio/ml.
Cells are then seeded 80 μl/well to the 40 μl/well including dispensed compounds according to plate layout. By adding cells, compounds are further diluted 1:3, and resulting in 100k cells/120 μl/well. After 48 hours 40 μl of supernatant is collected carefully from the top while not disturbing the cells. Cells are assessed for proliferation 5 days later by measuring […] using CellTiterGlo (Promega).
Compounds were added in a 5 or 6 pt dose response with the Tecan D300e Digital Dispenser, all conditions 3 times more concentrated than the end-concentration, since cells are added afterwards (80 μl cells to 40 μl prepared medium with treatment). The DR was starting at 20 μM or 10 μM final top concentration and a dilution factor of 3.333. The positive control was the reference compound A1 that was added in a dose response as well, additionally to 3 wells of only 20 μM representing the positive stimulator control. All wells were normalized with DMSO to a final concentration of 0.6% (0.2% end-concentration).
After 5 days, for detection of ATP which is directly proportional to the number of cells present per well, the CellTiter-Glo® 2.0 Reagent is used. After visual control for toxicity or precipitations of the tested compounds, the plates are equilibrated to room temperature for 45 minutes. CellTiter-Glo® 2.0 Reagent is equilibrated to room temperature as well. After equilibration, an equal amount of CellTiter-Glo reagent is added to the cells (80 μl/well) with an electronic multichannel pipette. Plates are placed on a rocking platform for 15 minutes at room temperature. After incubation, the bottom of the plates is sealed with backing tape. Luminescence is measured with PHERAstar FSX (interval time 0.5 sec, gain 3000, focal height 15 mm) and exported as CSV file for analysis in Genedata screener.
CD3 and PBS plates were analysed separately in Genedata Screener using Roche Normalization PCT_POS_CTRL with DMSO set as Neutral Control and 20 μM of the reference compound A1 set as Stimulator Control/100%.
For CD3 conditions EC50 and Emax of the fitted sigmoidal curve were reported. If no curve could be fitted, the EC50 was reported as blank field and the Emax was based on individual data points. […] Compounds which activate unstimulated cells (see IL2 measurements) or compounds which negatively affected viability were flagged.

T1 sequence (P23743 whole entry): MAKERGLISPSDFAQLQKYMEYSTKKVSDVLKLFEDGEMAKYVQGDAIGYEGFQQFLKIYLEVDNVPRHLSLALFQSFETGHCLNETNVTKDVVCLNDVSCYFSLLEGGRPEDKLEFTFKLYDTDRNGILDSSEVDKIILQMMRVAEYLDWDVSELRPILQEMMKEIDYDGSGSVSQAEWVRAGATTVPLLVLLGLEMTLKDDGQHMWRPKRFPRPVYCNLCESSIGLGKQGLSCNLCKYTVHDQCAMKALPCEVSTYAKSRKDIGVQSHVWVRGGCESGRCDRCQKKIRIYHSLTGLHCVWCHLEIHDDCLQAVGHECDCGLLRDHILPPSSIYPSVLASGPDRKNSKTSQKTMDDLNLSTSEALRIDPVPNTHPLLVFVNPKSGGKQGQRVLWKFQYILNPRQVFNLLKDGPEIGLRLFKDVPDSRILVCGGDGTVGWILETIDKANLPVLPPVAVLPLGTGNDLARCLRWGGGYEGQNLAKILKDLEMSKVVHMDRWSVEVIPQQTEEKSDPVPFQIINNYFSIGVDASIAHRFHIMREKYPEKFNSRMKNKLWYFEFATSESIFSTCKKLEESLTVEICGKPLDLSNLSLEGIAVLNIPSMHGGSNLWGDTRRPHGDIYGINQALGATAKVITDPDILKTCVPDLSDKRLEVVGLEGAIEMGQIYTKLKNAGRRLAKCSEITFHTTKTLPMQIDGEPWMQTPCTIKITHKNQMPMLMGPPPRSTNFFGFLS

| IC50 [1] [nM] | Compound | EC50 (primary human T-cells) [nM] | Emax (primary human T-cells) [%] |
| --- | --- | --- | --- |
| 7180 | CC(C)(C#N)c1nnc(-c2cc3c(cc2F)C(F)(F)C[C@@H](N)C(=O)N3Cc2ccc(-n3nnc(C(F)(F)F)n3)cc2)o1 (single isomer, unassigned) [Example 20] | 205 | 118 |
| 33900 | CC(C)(C)c1nnc(-c2cc3c(cc2F)C(F)(F)CC(N)C(=O)N3Cc2ccc(OC(F)(F)F)cc2)o1 (stereo not drawn) [Example 1, 3-amino-8-(5-tert-butyl-1,3,4-oxadiazol-2-yl)-5,5,7-trifluoro-1-[[4-(trifluoromethoxy)phenyl]methyl]-3,4-dihydro-1-benzazepin-2-one] | 2590 | 74 |
| 5440 | CC(C)(c1nnc(-c2cc3c(cc2F)C(F)(F)C[C@@H](N)C(=O)N3Cc2ccc(-c3ccc(C(F)(F)F)cn3)cc2)o1)S(C)(=O)=O (single isomer, unassigned) [Example 8] | 185 | 86 |
| 11200 | CC(F)(F)c1ccc(-c2ccc(CN3C(=O)[C@H](N)CC(F)(F)c4cc(F)c(-c5nnc(C(C)(C)C#N)o5)cc43)cc2)nc1 (single isomer, unassigned) [Example 37] | 215 | 138 |
| 13200 | CC(C)(c1nnc(-c2cc3c(cc2F)C(F)(F)C[C@@H](N)C(=O)N3Cc2ccc(-c3noc(C(F)(F)F)n3)cc2)o1)S(C)(=O)=O (single isomer, unassigned) [Example 16] | 296 | 241 |
| > 60000 | COCCN1CC(c2nnc(-c3cc4c(cc3F)C(F)(F)C[C@@H](N)C(=O)N4Cc3ccc(-c4ccc(C(F)(F)F)cn4)cc3)o2)CC(F)(F)C1 (single isomer, unassigned) [Example 34] | 1220 | 75 |
| > 62500 | N[C@@H]1CC(F)(F)c2cc(F)c(-c3nnc(N4CCOC5(CC5)C4)o3)cc2N(Cc2ccc(-c3noc(C(F)(F)F)n3)cc2)C1=O (single isomer, unassigned) [Example 17] | 558 | 115 |
| 24600 | CC(C)(C#N)c1nnc(-c2cc3c(cc2F)C(F)(F)C[C@@H](N)C(=O)N3Cc2ccc(-c3cc(C(F)(F)F)ccn3)cc2)o1 (single isomer, unassigned) [Example 27] | 598 | 79 |
| 425 | CC(C)(c1nnc(-c2cc3c(cc2F)C(F)(F)C[C@@H](N)C(=O)N3Cc2ccc(-c3ccc(OC(F)(F)F)cn3)cc2)o1)S(C)(=O)=O (single isomer, unassigned) [Example 26] | 950 | 155 |
| 26400 | CC(C)(C#N)c1nnc(-c2cc3c(cc2F)C(F)(F)C[C@@H](N)C(=O)N3Cc2ccc(-n3ccc(C(F)(F)F)n3)cc2)o1 (single isomer, unassigned) [Example 30] | 589 | 94 |
| 24000 | CC(C)(C#N)c1nnc(-c2cc3c(cc2F)C(F)(F)C[C@@H](N)C(=O)N3Cc2ccc(-c3ccc(OC(F)F)cn3)cc2)o1 (single isomer, unassigned) [Example 41] | 196 | 113 |
| 16900 | CC(C)(c1nnc(-c2cc3c(cc2F)C(F)(F)CC(N)C(=O)N3Cc2ccc(Oc3ccccc3)cc2)o1)S(C)(=O)=O (racemic) [Example 5, (3S)-3-amino-5,5,7-trifluoro-8-[5-(1-methyl-1-methylsulfonyl-ethyl)-1,3,4-oxadiazol-2-yl]-1-[(4-phenoxyphenyl)methyl]-3,4-dihydro-1-benzazepin-2-one and (3R)-3-amino-5,5,7-trifluoro-8-[5-(1-methyl-1-methylsulfonyl-ethyl)-1,3,4-oxadiazol-2-yl]-1-[(4-phenoxyphenyl)methyl]-3,4-dihydro-1-benzazepin-2-one] | 684 | 249 |
| 4370 | COC(F)(c1nnc(-c2cc3c(cc2F)C(F)(F)C[C@H](N)C(=O)N3Cc2ccc(OC(F)(F)F)cc2)o1)C(F)(F)F (single isomer, unassigned) [Example 4] | 140 | 112 |
| 15300 | CC(C)(C#N)c1nnc(-c2cc3c(cc2F)C(F)(F)C[C@@H](N)C(=O)N3Cc2ccc(-c3ccc(C(F)F)cn3)cc2)o1 (single isomer, unassigned) [Example 40] | 655 | 99 |
| 9640 | CC(C)(C)c1nnc(-c2cc3c(cc2F)C(F)(F)C[C@@H](N)C(=O)N3Cc2ccc(OC3CCCC3)cc2)o1 (single isomer, unassigned) [Example 7] | 127 | 110 |
| 9250 | CCN1CC(c2nnc(-c3cc4c(cc3F)C(F)(F)C[C@@H](N)C(=O)N4Cc3ccc(OC(F)(F)F)cc3)o2)CC(F)(F)C1 (single isomer, unassigned) [Example 13] | 77.7 | 79 |
| 1860 | CC(C)(C#N)c1nnc(-c2cc3c(cc2F)C(F)(F)C[C@@H](N)C(=O)N3Cc2ccc(-c3ccc(OC(F)(F)F)cn3)cc2)o1 (single isomer, unassigned) [Example 24] | 161 | 129 |
| 16200 | COc1ccc(-c2ccc(CN3C(=O)[C@H](N)CC(F)(F)c4cc(F)c(-c5nnc(C(C)(C)S(C)(=O)=O)o5)cc43)cc2)cc1 (single isomer, unassigned) [Example 10] | 377 | 76 |
| > 62500 | N[C@@H]1CC(F)(F)c2cc(F)c(-c3nnc(N4CCCC4)o3)cc2N(Cc2ccc(-c3noc(C(F)(F)F)n3)cc2)C1=O (single isomer, unassigned) [Example 14] | 593 | 149 |

| Compound | IC50 [1] [nM] | EC50 (primary human T-cells) [nM] | Emax (primary human T-cells) [%] |
| --- | --- | --- | --- |
| COC(=O)N1CC2CC(c3nnc(-c4cc5c(cc4F)C(F)(F)CC(N)C(=O)N5Cc4ccc(-c5noc(C(F)(F)F)n5)cc4)o3)(C2)C1 (single isomer, unassigned) [Example 42] | 4320 | 1260 | 117 |
| COC(=O)N1CC2CC(c3nnc(-c4cc5c(cc4F)C(F)(F)C[C@@H](N)C(=O)N5Cc4ccc(Cl)cc4)o3)(C2)C1 (single isomer, unassigned) [Example 36] | 55200 | 168 | 82 |
| COC(=O)N1CC2CC(c3nnc(-c4cc5c(cc4F)C(F)(F)C[C@@H](N)C(=O)N5Cc4ccc(-c5ccc(C(F)(F)F)cn5)cc4)o3)(C2)C1 (single isomer, unassigned) [Example 35] | > 19000 | 124 | 128 |
